Test results published in the supplement of paper PMC10307832.

How the values were obtained:
Experiment in all cases: relative viability (nuclei count vs DMSO), 5 days (fraction); higher = more cells survive
[1] = compound: CC[C@@H](C)CNCC(=O)N1CCC2=C([C@@H]1COC3=CC=CC(=C3)C)C=CS2 [RU-SKI 43] + Cc1nc(NC(=O)N2CCC[C@H]2C(N)=O)sc1-c1ccnc(C(C)(C)C(F)(F)F)c1 [Alpelisib] (partner 2 µM)
Summary of the method: (§1)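 Values are medians from duplicate plates. Each reflects relative viability, defined as the nuclei count of treated wells over that of vehicle wells. Lung cancer cell lines in 1536-well plates were pin-tool dosed one day after seeding with one drug alone or with a fixed anchor-drug dose plus five library-drug doses (not always all listed) in √10 steps, then fixed, stained and imaged at 4× after 5 days.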

[2] = compound: CCc1c2c(nc3ccc(OC(=O)N4CCC(N5CCCCC5)CC4)cc13)-c1cc3c(c(=O)n1C2)COC(=O)[C@]3(O)CC [Irinotecan] + CC(=O)Nc1cccc(-n2c(=O)n(C3CC3)c(=O)c3c(Nc4ccc(I)cc4F)n(C)c(=O)c(C)c32)c1 [Trametinib] (partner 0.02 µM)
Summary of the method: as §1

[3] = compound: CCc1c2c(nc3ccc(OC(=O)N4CCC(N5CCCCC5)CC4)cc13)-c1cc3c(c(=O)n1C2)COC(=O)[C@]3(O)CC [Irinotecan] + O=C(CCCCCCC(=O)Nc1ccccc1)NO [Vorinostat] (partner 1 µM)
Summary of the method: as §1

[4] = compound: Cn1cc(-c2cnc3ccc4ccc(CS(=O)(=O)NCc5ccccn5)cc4c(=O)c3c2)cn1 [MK-8033] + Cc1nc(Nc2ncc(C(=O)Nc3c(C)cccc3Cl)s2)cc(N2CCN(CCO)CC2)n1 [Dasatinib] (partner 0.075 µM)
Summary of the method: as §1

Cell Line	relative viability ([1]; first compound 0.1 µM)	relative viability ([1]; first compound 0.3162 µM)	relative viability ([1]; first compound 1 µM)	relative viability ([1]; first compound 3.162 µM)	relative viability ([1]; first compound 10 µM)	relative viability ([2]; first compound 0.6325 µM)	relative viability ([2]; first compound 2 µM)	relative viability ([2]; first compound 6.325 µM)	relative viability ([2]; first compound 20 µM)	relative viability ([3]; first compound 0.6325 µM)	relative viability ([3]; first compound 2 µM)	relative viability ([3]; first compound 6.325 µM)	relative viability ([3]; first compound 20 µM)	relative viability ([4]; first compound 0.02 µM)	relative viability ([4]; first compound 0.06325 µM)	relative viability ([4]; first compound 0.2 µM)	relative viability ([4]; first compound 0.6325 µM)	relative viability ([4]; first compound 2 µM)
NCI-H2023	0.62	0.722	0.6	0.605	0.521	0.589	0.646	0.261	0.0947	0.365	0.451	0.204	0.0592	0.603	0.437	0.421	0.342	0.288
EKVX	0.79	0.949	0.828	0.946	0.839	–	0.35	0.279	0.15	–	0.52	0.43	0.398	0.519	0.499	0.569	0.434	0.551
EPLC-272H	1.12	0.968	0.987	–	0.948	–	0.323	0.224	0.203	0.428	0.389	0.357	0.254	0.375	0.273	0.297	0.319	0.336
LCLC-97TM1	0.215	–	0.206	0.241	0.234	0.131	0.14	0.128	0.154	0.104	0.248	0.114	0.129	0.887	0.814	0.803	0.84	0.939
NCI-H2085	0.93	1.02	1.09	1.01	0.845	0.521	0.397	0.32	0.252	0.753	0.756	0.583	0.564	0.209	0.246	0.247	0.265	0.225
COR-L23	0.87	0.657	0.725	0.757	0.815	0.307	0.41	0.23	0.0821	0.169	0.184	0.199	0.0826	0.458	0.427	0.522	0.466	0.489
HCC-15	0.96	1.02	0.963	0.931	0.844	0.325	0.233	0.179	0.174	0.452	0.333	0.252	0.197	0.639	0.541	0.542	0.6	0.616
RERF-LC-KJ	0.826	0.98	0.734	0.821	0.802	0.869	0.63	0.433	0.282	0.462	0.586	0.48	0.271	0.648	0.742	0.752	0.631	0.746
PC-3 [JPC-3]	0.988	1.03	1.11	1.08	0.998	0.671	0.811	0.534	0.358	0.625	0.914	0.411	0.419	0.935	0.939	0.948	1.02	0.966
NCI-H1355	0.826	0.877	0.924	0.956	0.921	–	0.399	0.239	0.22	–	0.578	0.36	0.26	0.647	0.655	0.645	0.698	0.763
NCI-H460	0.44	0.657	0.6	0.5	0.36	0.086	0.159	0.089	0.0313	0.193	0.218	0.0779	0.0695	0.481	0.409	0.48	0.501	0.484
NCI-H2228	0.667	0.768	1.08	0.704	0.423	0.279	0.611	0.402	0.437	0.567	0.592	0.435	0.433	0.586	0.517	0.471	0.446	0.482
LCLC-103H	0.941	1.06	1.05	1.14	0.91	0.655	0.603	0.463	0.479	0.449	0.554	0.623	0.563	0.516	0.518	0.406	0.434	0.537
SK-LU-1	0.931	1.31	1.25	1.13	1.01	0.36	0.417	0.399	0.316	0.435	0.431	0.45	0.313	0.153	0.224	0.182	0.185	0.191
201T	1.08	1.01	0.984	1.03	1.01	0.771	0.347	0.255	0.27	0.325	0.81	0.426	0.28	0.646	0.62	0.573	0.533	0.614
NCI-H441	0.87	0.907	0.573	0.68	0.946	0.405	0.426	0.141	0.198	0.443	0.305	0.233	0.197	0.511	0.603	0.494	0.835	0.405
SW 1573	0.884	0.937	0.695	0.793	0.637	–	0.432	0.138	0.0925	–	0.605	0.209	0.0706	0.444	0.508	0.502	0.424	0.466
HOP-62	0.978	0.934	1.26	1.09	1.01	0.311	0.23	0.23	0.228	0.234	0.311	0.167	0.188	0.536	0.535	0.581	0.66	0.599
